Converted amounts (≈) assume the structure as drawn.
Tests used:
Adenosine receptor A1 [1] = biological target: T1, Adenosine receptor A1 (Rattus norvegicus, UniProt P25099)
T1 sequence (P25099 whole entry): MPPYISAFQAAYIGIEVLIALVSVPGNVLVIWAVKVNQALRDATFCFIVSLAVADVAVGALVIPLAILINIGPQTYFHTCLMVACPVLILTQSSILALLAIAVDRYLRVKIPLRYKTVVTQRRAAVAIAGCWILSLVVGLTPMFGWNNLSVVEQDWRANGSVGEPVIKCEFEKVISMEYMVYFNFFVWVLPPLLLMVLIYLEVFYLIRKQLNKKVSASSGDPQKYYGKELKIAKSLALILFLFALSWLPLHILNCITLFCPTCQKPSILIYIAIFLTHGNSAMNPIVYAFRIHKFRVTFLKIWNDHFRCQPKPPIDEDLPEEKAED
Description: Binding affinity towards adenosine A1 receptor in rat cerebral cortical membranes by [3H]cyclohexyladenosine displacement.

[2] = biological target: Adenosine A2 receptor (Cavia porcellus)
[3] = Solubility in 0.1 M sodium phosphate, and at pH 7.2; type: physicochemical; settings: 0.1 M sodium phosphate buffer
Adenosine receptor A1 [4] = biological target: T1, Adenosine receptor A1; assay: Binding affinity towards adenosine A1 receptor in rat cerebral cortical membranes with 1 nM [3H]cyclohexyladenosine; type: cell membranes
[5] = biological target: Adenosine A2 receptor (Cavia porcellus); assay: Binding affinity against A2 adenosine receptor in [3H]adenine-labeled guinea pig cerebral cortical slices

Compound | Ki (Adenosine receptor A1 [1]) [µM] | Ki [2] [µM] | also measured
Cn1c(=O)c2nc(-c3ccc(OCC(=O)O)cc3)[nH]c2n(C)c1=O | 0.5 | 0.43 | –
CCCn1c(=O)c2nc(-c3ccc(OCC(=O)Nc4ccc(C)cc4)cc3)[nH]c2n(CCC)c1=O | 0.036 | 0.75 | –
CC(=O)O.CCCn1c(=O)c2nc(-c3ccc(OCC(=O)NCCN(CC)Cc4ccc(O)cc4)cc3)[nH]c2n(CCC)c1=O | 0.0022 | 0.32 | –
CCCn1c(=O)c2[nH]c(-c3ccc(OCC(N)=O)cc3)nc2n(CCC)c1=O | – | – | solubility [3]: 26 µM (≈ 10 µg/mL); Ki (Adenosine receptor A1 [4]): 0.006 µM
CCCn1c(=O)c2[nH]c(-c3ccc(OCC(=O)NCCN)cc3)nc2n(CCC)c1=O [XANTHINE AMINE CONGENER] | – | – | solubility [3]: 90 µM (≈ 38.6 µg/mL)
Cc1ccc(NC(=O)COc2ccc(-c3nc4c(=O)n(C)c(=O)n(C)c4[nH]3)cc2)cc1 | 0.026 | – | –
CCCn1c(=O)c2nc(-c3ccc(OCC(=O)NCCCCCCCCN)cc3)[nH]c2n(CCC)c1=O | 0.005 | 0.47 | –
CCCn1c(=O)c2nc(-c3ccc(OCC(=O)NCCNC(=O)CCCCC4SCC5NC(=O)NC54)cc3)[nH]c2n(CCC)c1=O (stereo not drawn) | 0.054 | – | Ki [5]: 0.18 µM
CCCn1c(=O)c2nc(-c3ccc(O)cc3)[nH]c2n(CCC)c1=O | – | – | solubility [3]: 3.2 µM (≈ 1.05 µg/mL)

The next lines start with results.

Ki (Adenosine receptor A1 [1]) [µM] | Ki [2] [µM] | Compound | also measured
0.096 | – | CCCn1c(=O)c2nc(-c3ccc(OCC(=O)N(C(=O)NC4CCCCC4)C4CCCCC4)cc3)[nH]c2n(CCC)c1=O | –
– | 0.04 | CCCn1c(=O)c2nc(-c3ccc(OCC(=O)ON4C(=O)CCC4=O)cc3)[nH]c2n(CCC)c1=O | –
0.032 | – | CCCn1c(=O)c2nc(-c3ccc(OCC(=O)N(C)C)cc3)[nH]c2n(CCC)c1=O | –
– | 0.03 | CCCn1c(=O)c2nc(-c3ccc(OCC(=O)OCC)cc3)[nH]c2n(CCC)c1=O | –
0.059 | – | CCCn1c(=O)c2nc(-c3ccc(OCC(=O)NN)cc3)[nH]c2n(CCC)c1=O | –
0.024 | – | CCCn1c(=O)c2nc(-c3ccc(OCC(=O)NCCNC(C)=O)cc3)[nH]c2n(CCC)c1=O | –
0.0041 | 0.062 | CCCn1c(=O)c2nc(-c3ccc(OCC(=O)Nc4ccc(O)cc4)cc3)[nH]c2n(CCC)c1=O | –
